The results in this text go back to paper PMC4918930, “Investigation of Elemental Mass Spectrometry in Pharmacology for Peptide Quantitation at Femtomolar Levels” (PLoS ONE, 2016).

Residues, ends and D or L forms follow the SMILES beside them.

This assay concerns the target T1, human V1A receptor (Homo sapiens, UniProt P37288).
T1 construct: expressed in transfected cells
The assay can be described thus: Saturation experiment with RP-LC-ICP-MS (78Se) read-out on CHO cells stably expressing the human V1A receptor. The following applies: [Se-Se]-AVP 0.05 nM to 80 nM, non-specific with 2000-fold excess of AVP, binding buffer pH 7.4, 4 h at 4°C, 1% TFA dissociation, mean of 2 independent experiments carried out in triplicate, ±SD, read-out: dissociation constant (Kd). Here is the method: (§1) Assays were performed in triplicate.
as §1

As a reminder, the Kd is the equilibrium constant for the complex coming apart.

T1 sequence (P37288 whole entry): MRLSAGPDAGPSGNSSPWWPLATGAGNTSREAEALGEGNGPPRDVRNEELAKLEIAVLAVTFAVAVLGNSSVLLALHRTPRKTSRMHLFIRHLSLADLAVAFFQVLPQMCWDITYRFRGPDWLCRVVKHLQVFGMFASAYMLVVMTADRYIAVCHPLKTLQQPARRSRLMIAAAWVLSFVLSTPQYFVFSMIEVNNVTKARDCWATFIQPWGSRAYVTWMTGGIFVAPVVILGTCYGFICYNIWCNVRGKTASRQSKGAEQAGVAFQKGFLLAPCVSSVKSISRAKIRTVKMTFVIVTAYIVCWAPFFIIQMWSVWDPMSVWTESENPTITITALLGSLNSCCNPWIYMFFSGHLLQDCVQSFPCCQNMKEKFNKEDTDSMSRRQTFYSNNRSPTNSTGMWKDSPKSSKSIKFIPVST

Consider `N=C(N)NCCC[C@H](NC(=O)[C@@H]1CCCN1C(=O)[C@@H]1C[Se][Se]C[C@H](N)C(=O)N[C@@H](Cc2ccc(O)cc2)C(=O)N[C@@H](Cc2ccccc2)C(=O)N[C@@H](CCC(N)=O)C(=O)N[C@@H](CC(N)=O)C(=O)N1)C(=O)NCC(N)=O` [[Se-Se]-AVP] (HELM PEPTIDE1{[N[C@@H](C[Se][*:3])C(=O)[*:2]].Y.F.Q.N.[O=C([C@H](C[Se][*:3])N[*:1])[*:2]].P.R.G.[am]}$PEPTIDE1,PEPTIDE1,1:R3-6:R3$$$V2.0), for which the Kd came out at 0.99 ± 0.14 nM.
